# Patent US8901294B2, “MRI contrast agent having gadolinium complex” (priority 2010, dated 2014)
# Read-outs that look alike come from different tables or passages of the source. Marks after values point to notes of the source that are not given here.
# Assays:
# [1] = literature data, cited from earlier work; for LogK [CaL]/[Ca][L] (stability constant): 25° C., μ = 0.10M (KCl)
# [2] = literature data, cited from earlier work; for LogK [GdL]/[Gd][L] (stability constant): 25° C., μ = 0.10M (KCl); for logKsel(Gd/Ca) (selectivity constant): Gd over Ca; for logKsel(Gd/Cu) (selectivity constant): Gd over Cu; for logKsel(Gd/Zn) (selectivity constant): Gd over Zn; for pGd: pM = −log[M]free at pH7.4, [M]total = 1 μmol/dm^3, [L]total = 1.1 μmol/dm^3
# [3] = 25° C., μ = 0.10M (KCl); literature data; cited from earlier work
# [4] = literature data, cited from earlier work; for LogK [CuL]/[Cu][L] (stability constant): 25° C., μ = 0.10M (KCl); for pCu: pM = −log[M]free at pH7.4, [M]total = 1 μmol/dm^3, [L]total = 1.1 μmol/dm^3
# [5] = literature data, cited from earlier work; for LogK [ZnL]/[Zn][L] (stability constant): 25° C., μ = 0.10M (KCl); for pZn: pM = −log[M]free at pH7.4, [M]total = 1 μmol/dm^3, [L]total = 1.1 μmol/dm^3
# [6] = for logKCuL(PH7.4) (conditional stability constant): pH 7.4; for pCu: pM = −log[M]free at pH7.4, [M]total = 1 μmol/dm^3, [L]total = 1.1 μmol/dm^3
# [7] = for logKCaL(pH7.4) (conditional stability constant): pH 7.4; for pCa: pM = −log[M]free at pH7.4, [M]total = 1 μmol/dm^3, [L]total = 1.1 μmol/dm^3
# [8] = for logKZnL(pH7.4) (conditional stability constant): pH 7.4; for pZn: pM = −log[M]free at pH7.4, [M]total = 1 μmol/dm^3, [L]total = 1.1 μmol/dm^3
# [9] = for logKsel(Gd/Ca) (selectivity constant): Gd over Ca; for logKsel(Gd/Ca) (selectivity constant) / logKsel(Gd/Cu) (selectivity constant) / logKsel(Gd/Zn) (selectivity constant): 25° C., μ = 0.10M (KCl); for logKsel(Gd/Cu) (selectivity constant): Gd over Cu; for logKsel(Gd/Zn) (selectivity constant): Gd over Zn; for logKGdL(pH7.4) (conditional stability constant): pH 7.4; for pGd: pM = −log[M]free at pH7.4, [M]total = 1 μmol/dm^3, [L]total = 1.1 μmol/dm^3
# [10] = 25° C., μ = 0.10M (KCl)
# [11] = reference values from ref. 8 or 9; cited from earlier work
# [12] = Transmetalation kinetics: evolution of paramagnetic relaxation rate R1P(t)/R1P(0) in presence of ZnCl2; assay type: physicochemical; conditions: phosphate-buffered solution pH 7.4, 2.5 mmol/L Gd-complex and 2.5 mmol/L ZnCl2, 72 hours
# Text: […]. The relative value of R1^P at time t, R1^P(t)/R1^P(0), is therefore a good estimate of the extent of transmetalation. The evolution of R1^P(t)/R1^P(0) over time gives relevant information about the kinetics of the reaction, whereas the plateau value theoretically reached at t=∞ will reflect the thermodynamic aspect.
# Accordingly, in order to investigate the transmetalation kinetics of the gadolinium complexes according to the present invention, the evolution of water proton relaxation rate (R1^P) of a phosphate-buffered solution (pH 7.4) containing 2.5 mmol/L of Gd-complex and 2.5 mmol/L of ZnCl2 with time was measured. To measure the change in the relaxation rate, 10 μL of a ZnCl2 solution (250 mmol/L) was added to 1 mL of a buffered solution of the Gd-complex and the mixture was vigorously stirred. The same experiment was performed with Dotarem®, Omniscan®, Multihance®, Primovist® and ethyl tranexamate (6) with zinc acetate for comparison. The measurement was made on a 3T whole body system (Magnetom Tim Trip; Simens, Germany) at room temperature.
# [13] = Relaxation times (T1, T2) and relaxivities (R1, R2) at 1.5 T; assay type: physicochemical; conditions: 1.5 T; mean value(±SD)
# Protocol: T1 measurements were carried out using an inversion recovery method with a variable inversion time (TI) at 1.5 T. The MR images were acquired at 35 different TI values ranging from 50 to 1750 ms. T1 relaxation times were obtained from the nonlinear least-squares fit of the signal intensity measured at each T1 value. For T2 measurements the CPMG (Carr-Purcell-Meiboon-Gill) pulse sequence was adapted for multiple spin-echo measurements. Thirty-four images were acquired with 34 different echo time (TE) values. T2 relaxation times were obtained from the nonlinear least-squares fit of the mean pixel values for the multiple spin-echo measurements at each echo time. Relaxivities were then calculated as an inverse (R=1/s·mM) of relaxation time per mM. The determined relaxation times and relaxivities are finally transformed to a phantom map. The phantom images were obtained with the same concentration of Dotarem® and gadolinium complexes or comparative purposes. […] Table 2 summarizes the relaxation times and relaxivities for gadolinium complexes of the present invention along with other Gd-complexes.
smiles,measurement,setting,value
O=C(O)CN(CCN(CC(=O)O)CC(=O)O)CCN(CC(=O)O)CC(=O)O [DTPA],LogK [CaL]/[Ca][L] (stability constant),[1],10.75
same,logKCaL(pH7.4) (conditional stability constant),[1],6.43
same,pCa,"[1]; pM = −log[M]free at pH7.4, [M]total = 1 μmol/dm^3, [L]total = 1.1 μmol/dm^3",5.45
same,LogK [GdL]/[Gd][L] (stability constant),[2],22.46
same,logKsel(Gd/Ca) (selectivity constant),[2],11.71
same,logKsel(Gd/Cu) (selectivity constant),[2],1.08
same,logKsel(Gd/Zn) (selectivity constant),[2],3.76
same,logKGdL(pH7.4) (conditional stability constant),[2],18.14
same,pGd,[2],17.14
same,LogK [H2L]/[HL][H] (protonation constant),[3],8.60
same,LogK [H3L]/[H2L][H] (protonation constant),[3],4.28
same,LogK [H4L]/[H3L][H] (protonation constant),[3],2.64
same,LogK [HL]/[L][H] (protonation constant),[3],10.49
same,ΣpKa (overall basicity),[3],26.01
same,LogK [CuL]/[Cu][L] (stability constant),[4],21.38
same,logKCuL(PH7.4) (conditional stability constant),[4],17.06
same,pCu,[4],16.06
same,LogK [ZnL]/[Zn][L] (stability constant),[5],18.70
same,logKZnL(pH7.4) (conditional stability constant),[5],14.38
same,pZn,[5],13.39
"CCOC(=O)C1CCC(CNC(=O)CN2CCN(CC(=O)O)CCN(CC(=O)O)CCN(CC(=O)O)CC2)CC1 (centres unmarked) [Compound 4b, DO3A-tranexamic Acid Ester Derivative 1]",logKCuL(PH7.4) (conditional stability constant),[6],12.04
same,pCu,[6],11.04
same,logKCaL(pH7.4) (conditional stability constant),[7],10.06
same,pCa,[7],9.06
same,logKZnL(pH7.4) (conditional stability constant),[8],11.29
same,pZn,[8],10.29
same,logKsel(Gd/Ca) (selectivity constant),[9],6.65
same,logKsel(Gd/Cu) (selectivity constant),[9],4.68
same,logKsel(Gd/Zn) (selectivity constant),[9],5.43
same,logKGdL(pH7.4) (conditional stability constant),[9],16.72
same,pGd,[9],15.72
same,LogK [H2L]/[HL][H] (protonation constant),[10],9.35
same,LogK [H3L]/[H2L][H] (protonation constant),[10],5.24
same,LogK [HL]/[L][H] (protonation constant),[10],10.80
"O=C(O)CN1CCN(CC(=O)O)CCN(CC(=O)NCC2CCC(C(=O)O)CC2)CCN(CC(=O)O)CC1 (centres unmarked) [Compound 4a, DO3A-tranexamic acid]",logKCuL(PH7.4) (conditional stability constant),[6],11.70
same,pCu,[6],10.70
same,logKCaL(pH7.4) (conditional stability constant),[7],8.16
same,pCa,[7],7.16
same,logKZnL(pH7.4) (conditional stability constant),[8],10.86
same,pZn,[8],9.86
same,logKsel(Gd/Ca) (selectivity constant),[9],10.56
same,logKsel(Gd/Cu) (selectivity constant),[9],7.02
same,logKsel(Gd/Zn) (selectivity constant),[9],7.87
same,logKGdL(pH7.4) (conditional stability constant),[9],18.73
same,pGd,[9],17.73
same,LogK [H2L]/[HL][H] (protonation constant),[10],8.91
same,LogK [H3L]/[H2L][H] (protonation constant),[10],4.93
same,LogK [H4L]/[H3L][H] (protonation constant),[10],4.87
same,LogK [HL]/[L][H] (protonation constant),[10],11.73
CCOc1ccc(CC(CN(CCN(CC(=O)[O-])CC(=O)[O-])CC(=O)[O-])N(CC(=O)[O-])CC(=O)[O-])cc1.[Gd+3].[Na+].[Na+] (centres unmarked) [Primovist],R1 relaxivity,[11],4.7 ± 0.2 mM⁻¹ s⁻¹
same,R2 relaxivity,[11],5.1 ± 0.6 mM⁻¹ s⁻¹
same,T1 relaxation time,[11],213.15 ± 9.07 ms
same,T2 relaxation time,[11],198.83 ± 23.4 ms
same,pattern of evolution of the paramagnetic relaxation rate R1P(t)/R1P(0) (in words),[12],drastic decrease in the rate
"C=CCOC(=O)C1CCC(CNC(=O)CN2CCN(CC(=O)O)CCN(CC(=O)O)CCN(CC(=O)O)CC2)CC1 (centres unmarked) [Compound 4c, DO3A-tranexamic Acid Ester Derivative 2]",logKCuL(PH7.4) (conditional stability constant),[6],14.77
same,pCu,[6],13.77
same,logKCaL(pH7.4) (conditional stability constant),[7],10.44
same,pCa,[7],9.43
same,logKZnL(pH7.4) (conditional stability constant),[8],13.08
same,pZn,[8],12.08
same,logKsel(Gd/Ca) (selectivity constant),[9],6.55
same,logKsel(Gd/Cu) (selectivity constant),[9],2.21
same,logKsel(Gd/Zn) (selectivity constant),[9],3.91
same,logKGdL(pH7.4) (conditional stability constant),[9],16.99
same,pGd,[9],15.99
same,LogK [H2L]/[HL][H] (protonation constant),[10],8.64
same,LogK [H3L]/[H2L][H] (protonation constant),[10],5.45
same,LogK [HL]/[L][H] (protonation constant),[10],10.62
CNC[C@H](O)[C@@H](O)[C@H](O)[C@H](O)CO.CNC[C@H](O)[C@@H](O)[C@H](O)[C@H](O)CO.O=C([O-])CN(CCN(CC(=O)[O-])CC(=O)O)CCN(CC(=O)O)C(COCc1ccccc1)C(=O)[O-].[Gd+3] (centres unmarked) [Multihance],R1 relaxivity,[11],4.0 ± 0.2 mM⁻¹ s⁻¹
same,R2 relaxivity,[11],4.3 ± 0.5 mM⁻¹ s⁻¹
same,T1 relaxation time,[11],250.62 ± 12.5 ms
same,T2 relaxation time,[11],235 ± 27.4 ms
same,pattern of evolution of the paramagnetic relaxation rate R1P(t)/R1P(0) (in words),[12],drastic decrease in the rate
O=C(O)CN1CCN(CC(=O)O)CCN(CC(=O)O)CCN(CC(=O)O)CC1 [DOTA],LogK [CaL]/[Ca][L] (stability constant),[1],17.23
same,logKCaL(pH7.4) (conditional stability constant),[1],10.26
same,LogK [GdL]/[Gd][L] (stability constant),[2],25.30
same,logKsel(Gd/Ca) (selectivity constant),[2],8.07
same,logKsel(Gd/Cu) (selectivity constant),[2],2.67
same,logKsel(Gd/Zn) (selectivity constant),[2],4.25
same,logKGdL(pH7.4) (conditional stability constant),[2],18.33
same,pGd,[2],19.2
same,LogK [H2L]/[HL][H] (protonation constant),[3],9.68
same,LogK [H3L]/[H2L][H] (protonation constant),[3],4.55
same,LogK [H4L]/[H3L][H] (protonation constant),[3],4.13
same,LogK [HL]/[L][H] (protonation constant),[3],12.09
same,ΣpKa (overall basicity),[3],30.45
same,LogK [CuL]/[Cu][L] (stability constant),[4],22.63
same,logKCuL(PH7.4) (conditional stability constant),[4],15.66
same,pCu,[4],14.05
same,LogK [ZnL]/[Zn][L] (stability constant),[5],21.05
same,logKZnL(pH7.4) (conditional stability constant),[5],14.08
same,pZn,[5],15.19
O.O=C([O-])CN1CCN(CC(=O)[O-])CCN(CC(=O)NCC2CCC(C(=O)O)CC2)CCN(CC(=O)[O-])CC1.[Gd+3] (centres unmarked) [Compound 5a],R1 relaxivity,[13],3.9 ± 0.04 mM⁻¹ s⁻¹
same,R2 relaxivity,[13],4.0 ± 0.04 mM⁻¹ s⁻¹
same,T1 relaxation time,[13],256.43 ± 2.63^a msec
same,T2 relaxation time,[13],250.02 ± 2.50 ms
CCOc1ccc(C[C@@H](CN(CCN(CC(=O)O)CC(=O)O)CC(=O)O)N(CC(=O)O)CC(=O)O)cc1 [EOB-DTPA],LogK [GdL]/[Gd][L] (stability constant),[2],23.46
same,logKGdL(pH7.4) (conditional stability constant),[2],18.7
same,LogK [H2L]/[HL][H] (protonation constant),[3],8.63
same,LogK [H3L]/[H2L][H] (protonation constant),[3],4.26
same,LogK [H4L]/[H3L][H] (protonation constant),[3],2.73
same,LogK [HL]/[L][H] (protonation constant),[3],10.91
same,ΣpKa (overall basicity),[3],26.53
O=C(O)CN(CCN(CC(=O)O)CC(=O)O)CCN(CC(=O)O)C(COCc1ccccc1)C(=O)O (centres unmarked) [BOPTA],LogK [GdL]/[Gd][L] (stability constant),[2],22.6
same,logKGdL(pH7.4) (conditional stability constant),[2],18.4
same,LogK [H2L]/[HL][H] (protonation constant),[3],8.21
same,LogK [H3L]/[H2L][H] (protonation constant),[3],4.35
same,LogK [H4L]/[H3L][H] (protonation constant),[3],2.83
same,LogK [HL]/[L][H] (protonation constant),[3],10.71
same,ΣpKa (overall basicity),[3],26.10
same,logKCuL(PH7.4) (conditional stability constant),[4],17.3
same,logKZnL(pH7.4) (conditional stability constant),[5],13.9
CNC[C@H](O)[C@@H](O)[C@H](O)[C@H](O)CO.O=C([O-])CN1CCN(CC(=O)[O-])CCN(CC(=O)O)CCN(CC(=O)[O-])CC1.[Gd+3] [Dotarem],R1 relaxivity,[13],3.7 ± 0.04 mM⁻¹ s⁻¹
same,R2 relaxivity,[13],4.1 ± 0.21 mM⁻¹ s⁻¹
same,T1 relaxation time,[13],270.30 ± 2.92 ms
same,T2 relaxation time,[13],244.54 ± 12.5 ms
